From patent US20250127759A1, “METHODS AND DOSING REGIMENS COMPRISING A CDK2 INHIBITOR FOR THE TREATMENT OF CANCER” (PFIZER INC., priority 2021, published 2025)

What was measured:
OVCAR3 cells [1] = assay: Proliferation inhibition, OVCAR3; format: cell-based; conditions: Homo sapiens, OVCAR-3, 168 h, treated for 7 days
Experimental: (§1) Anti-proliferative activity was measured in cells treated for 7 days with PF-07104091 in OVCAR3 cells, Rb mutant NCI-H526 SCLC cells, and both HR-positive HER2-negative MCF7 and the subline MCF7-PalboR (resistant to palbociclib).

NCI-H526 SCLC cells = assay: Proliferation inhibition, NCI-H526; format: cell-based; conditions: Homo sapiens, 168 h, treated for 7 days
Experimental: as §1

OVCAR3 cells [2] = assay: Cell cycle distribution and DNA synthesis, OVCAR3; format: cell-based; conditions: 72-hour treatment with 300 nM
Experimental: The effect of PF-07104091 on cell cycle distribution and DNA synthesis was determined following 72-hour treatment with 300 nM PF-07104091.

[3] = In vivo efficacy, MCF7 breast cancer model; conditions: female, mouse, NSG mice, po, BID, read-out: maximum tolerated dose level
Experimental: (§2) Female NSG (Jackson Lab) or Nu/nu (CRL) were subcutaneously implanted with tumor cells or fragments (8 mm^3 to 27 mm^3) into the dorsal region. For the MCF7 study, mice were supplemented with estrogen (sc implanted, 17β-estradiol, 0.36 mg, 90-day release pellet, Innovative Research of America, cat no. NE-121).
The MCF7 model was established by implanting donor tumor fragments into recipient mice. To establish the MCF7 donor mice, tumor cells (5×10^6 cells/mouse with 50% Cultrex® Basement Membrane Matrix) were subcutaneously implanted in female NSG mice. […] 150 mg/kg, po, BID is the maximum tolerated dose level in this model. PF 07104091 was administered (p.o.) BID (7 hr apart). TGI was assessed on Day 21 post first dose (or Day 42 post tumor fragment implant).

[4] = Predicted human pharmacokinetics for starting dose
Experimental: The selection of the starting dose and regimen was based on the nonclinical toxicology and PK results in accordance with the ICH S9 Guidance. Results from nonclinical toxicity studies indicate the STD10 of PF-07104091 in mouse was 150 mg/kg after BID oral administration. The human equivalent dose for the STD10 in mouse is approximately 729 mg BID (assuming a body weight of 60 kg). Per ICH-S9 guidance, one-tenth of the STD10 can be considered the appropriate starting dose. Given the predicted human t % of approximately 4 hours, the starting dose has been selected to be 75 mg BID. The human AUC0-12 hr of PF-07104091 at the proposed starting oral dose of 75 mg BID is predicted to be ˜6.5% of the observed AUC0-12 hr at the STD10 in mouse (150 mg/kg BID) and ˜80% of the observed AUC0-12 hr at the HNSTD in dog (15 mg/kg BID).

NCI-H526 Model = assay: In vivo efficacy, NCI-H526 small cell lung cancer model; parameters: species or system mice; conditions: Day 15
Experimental: as §2
To establish the NCI-H526 model, tumor cells (4×10^6 cells/mouse with 50% Cultrex® Basement Membrane Matrix) were subcutaneously implanted in female Nu/nu mice. […] PF-07104091, Palbociclib at 10 mg/kg and CDK 2/4/6 inhibitor were administered (p.o.) BID (7 hr apart). TGI was assessed on Day 15 post first dose (or Day 20 post tumor cell implant).

Q: Which IC50 (OVCAR3 cells [1]) does the source give for COCc1cc(C(=O)Nc2cc([C@H]3CC[C@@H](OC(=O)NC(C)C)C3)[nH]n2)n(C)n1 [PF-07104091, (1R,3S)-3-[3-({[3-(methoxymethyl)-1-methyl-1H-pyrazol-5-yl]carbonyl}amino)-1H-pyrazol-5-yl]cyclopentyl propan-2-ylcarbamate] here?
A: Its IC50 is 118 nM.

Q: And the IC50 (NCI-H526 SCLC cells)?
A: The IC50 was 136 nM.

Q: What about the cell cycle arrest (OVCAR3 cells [2]) of the same compound?
A: Its cell cycle arrest is “Significant G1 arrest”.

Q: And the “S phase (cell cycle distribution)” value (OVCAR3 cells [2]; p≤0.05 versus vehicle)?
A: Its value is “Significant S phase reduction”.

Q: And the MTD at 21 days [3]?
A: The MTD at 21 days was 150 mg/kg.

Q: And the “predicted human AUC0-12 hr as % of observed AUC0-12 hr at the HNSTD in dog” value ([4]; human 75 mg BID oral vs dog 15 mg/kg BID)?
A: Its value is roughly 80%.

Q: What about the “predicted human AUC0-12 hr as % of observed AUC0-12 hr at the STD10 in mouse” value ([4]; human 75 mg BID oral vs mouse 150 mg/kg BID) of the same compound?
A: Its value is roughly 6.5%.

Q: What about the “predicted human t %” value ([4]; human, predicted) of the same compound?
A: The value was “approximately 4 hours”.

Q: What about the TGI % (NCI-H526 Model; 25 mg/kg BID PO) of the same compound?
A: Its TGI % is 44%.

Q: What about the TGI % (NCI-H526 Model; 75 mg/kg BID PO) of the same compound?
A: Its TGI % is 45%.
